The values that follow come from the supplement of paper PMC10307832.

Holding throughout (assay): relative viability (nuclei count vs DMSO), 5 days (fraction); higher = more cells survive
Compound in the experiment “RU-SKI 43 + Phenformin”: CC[C@@H](C)CNCC(=O)N1CCC2=C([C@@H]1COC3=CC=CC(=C3)C)C=CS2 [RU-SKI 43] + N=C(N)NC(=N)NCCc1ccccc1 [Phenformin] (partner 250 µM)
The gist of the method:
(§1)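 Relative viability was taken as the ratio of nuclei in treated wells to nuclei in vehicle wells. Lung cancer cell lines in 1536-well plates received compounds by pin tool one day after seeding, either one drug alone or a fixed anchor-drug dose plus five library-drug doses (not always all listed) in √10 steps. Nuclei were counted on 4× images after 5 days of treatment, and values are medians of duplicate plates.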

Compound in the experiment “Irinotecan + Luminespib”: CCc1c2c(nc3ccc(OC(=O)N4CCC(N5CCCCC5)CC4)cc13)-c1cc3c(c(=O)n1C2)COC(=O)[C@]3(O)CC [Irinotecan] + CCNC(=O)c1noc(-c2cc(C(C)C)c(O)cc2O)c1-c1ccc(CN2CCOCC2)cc1 [Luminespib] (partner 0.01 µM)
The gist of the method:
as §1

Compound in the experiment “Irinotecan + Crizotinib”: CCc1c2c(nc3ccc(OC(=O)N4CCC(N5CCCCC5)CC4)cc13)-c1cc3c(c(=O)n1C2)COC(=O)[C@]3(O)CC [Irinotecan] + C[C@@H](Oc1cc(-c2cnn(C3CCNCC3)c2)cnc1N)c1c(Cl)ccc(F)c1Cl [Crizotinib] (partner 1 µM)
The method in brief:
as §1

Compound in the experiment “MK-8033 + Lapatinib”: Cn1cc(-c2cnc3ccc4ccc(CS(=O)(=O)NCc5ccccn5)cc4c(=O)c3c2)cn1 [MK-8033] + CS(=O)(=O)CCNCc1ccc(-c2ccc3ncnc(Nc4ccc(OCc5cccc(F)c5)c(Cl)c4)c3c2)o1 [Lapatinib] (partner 2 µM)
The method in brief: as §1

NCI-H2228: the relative viability was 0.239 with RU-SKI 43 + Phenformin (first compound 0.1 µM); 0.407 in the experiment with RU-SKI 43 + Phenformin (first compound 0.3162 µM); 0.237 with RU-SKI 43 + Phenformin (first compound 1 µM); 0.329 in the experiment with RU-SKI 43 + Phenformin (first compound 3.162 µM); 0.278 in the experiment with RU-SKI 43 + Phenformin (first compound 10 µM); 0.14 with Irinotecan + Luminespib (first compound 0.6325 µM). In addition, the relative viability was 0.177 with Irinotecan + Luminespib (first compound 2 µM); 0.318 with Irinotecan + Luminespib (first compound 6.325 µM); 0.276 with Irinotecan + Luminespib (first compound 20 µM); 0.597 in the experiment with Irinotecan + Crizotinib (first compound 0.6325 µM); 0.518 with Irinotecan + Crizotinib (first compound 2 µM); 0.39 in the experiment with Irinotecan + Crizotinib (first compound 6.325 µM). Moreover, the relative viability with Irinotecan + Crizotinib (first compound 20 µM) came to 0.433; in the experiment with MK-8033 + Lapatinib (first compound 0.02 µM), 1.34; in the experiment with MK-8033 + Lapatinib (first compound 0.06325 µM), 1.08; in the experiment with MK-8033 + Lapatinib (first compound 0.2 µM), 0.848; with MK-8033 + Lapatinib (first compound 0.6325 µM), 1; in the experiment with MK-8033 + Lapatinib (first compound 2 µM) it was 0.98.
Consider NCI-H2347, for which the relative viability was 0.34 with RU-SKI 43 + Phenformin (first compound 0.1 µM); 0.352 with RU-SKI 43 + Phenformin (first compound 0.3162 µM); 0.544 with RU-SKI 43 + Phenformin (first compound 1 µM); 0.36 with RU-SKI 43 + Phenformin (first compound 3.162 µM); 0.383 with RU-SKI 43 + Phenformin (first compound 10 µM); 0.355 with Irinotecan + Luminespib (first compound 0.6325 µM). Moreover, the relative viability with Irinotecan + Luminespib (first compound 2 µM) came to 0.365; with Irinotecan + Luminespib (first compound 6.325 µM), 0.284; with Irinotecan + Luminespib (first compound 20 µM), 0.321; in the experiment with Irinotecan + Crizotinib (first compound 0.6325 µM), 0.571; in the experiment with Irinotecan + Crizotinib (first compound 2 µM), 0.476; with Irinotecan + Crizotinib (first compound 6.325 µM), 0.556. Moreover, the relative viability turned out to be 0.494 with Irinotecan + Crizotinib (first compound 20 µM); 0.872 in the experiment with MK-8033 + Lapatinib (first compound 0.02 µM); 0.858 with MK-8033 + Lapatinib (first compound 0.06325 µM); 0.903 with MK-8033 + Lapatinib (first compound 0.2 µM); 0.781 with MK-8033 + Lapatinib (first compound 0.6325 µM); 0.914 in the experiment with MK-8033 + Lapatinib (first compound 2 µM).
Regarding NCI-H2405, the relative viability with RU-SKI 43 + Phenformin (first compound 0.1 µM) was 0.37; with RU-SKI 43 + Phenformin (first compound 0.3162 µM), 0.371; with RU-SKI 43 + Phenformin (first compound 1 µM) it was 0.413; with RU-SKI 43 + Phenformin (first compound 3.162 µM), 0.379; with RU-SKI 43 + Phenformin (first compound 10 µM) it was 0.358; with Irinotecan + Luminespib (first compound 2 µM), 0.606. The relative viability amounted to 0.312 with Irinotecan + Luminespib (first compound 6.325 µM); 0.262 with Irinotecan + Luminespib (first compound 20 µM); 0.788 with Irinotecan + Crizotinib (first compound 0.6325 µM); 0.779 with Irinotecan + Crizotinib (first compound 2 µM); 0.355 in the experiment with Irinotecan + Crizotinib (first compound 6.325 µM); 0.274 in the experiment with Irinotecan + Crizotinib (first compound 20 µM). Also, the relative viability came out at 0.967 with MK-8033 + Lapatinib (first compound 0.02 µM); 0.944 in the experiment with MK-8033 + Lapatinib (first compound 0.06325 µM); 1.09 with MK-8033 + Lapatinib (first compound 0.2 µM); 1.03 with MK-8033 + Lapatinib (first compound 0.6325 µM); 1.1 with MK-8033 + Lapatinib (first compound 2 µM).
For the cell line NCI-H3122, the relative viability with RU-SKI 43 + Phenformin (first compound 0.1 µM) is 0.394; with RU-SKI 43 + Phenformin (first compound 0.3162 µM) it was 0.376; in the experiment with RU-SKI 43 + Phenformin (first compound 1 µM), 0.411; in the experiment with RU-SKI 43 + Phenformin (first compound 3.162 µM), 0.379; in the experiment with RU-SKI 43 + Phenformin (first compound 10 µM), 0.37; in the experiment with Irinotecan + Luminespib (first compound 0.6325 µM), 0.0615. The relative viability is 0.114 with Irinotecan + Luminespib (first compound 2 µM); 0.0849 in the experiment with Irinotecan + Luminespib (first compound 6.325 µM); 0.109 in the experiment with Irinotecan + Luminespib (first compound 20 µM); 0.25 with Irinotecan + Crizotinib (first compound 0.6325 µM); 0.205 with Irinotecan + Crizotinib (first compound 2 µM); 0.173 with Irinotecan + Crizotinib (first compound 6.325 µM). The relative viability came out at 0.163 in the experiment with Irinotecan + Crizotinib (first compound 20 µM); 1.03 with MK-8033 + Lapatinib (first compound 0.02 µM); 0.98 in the experiment with MK-8033 + Lapatinib (first compound 0.06325 µM); 1.01 with MK-8033 + Lapatinib (first compound 0.2 µM); 1.01 in the experiment with MK-8033 + Lapatinib (first compound 0.6325 µM); 0.993 with MK-8033 + Lapatinib (first compound 2 µM).
With PC-3 [JPC-3], the relative viability with RU-SKI 43 + Phenformin (first compound 0.1 µM) came out at 0.466; with RU-SKI 43 + Phenformin (first compound 0.3162 µM), 0.484; with RU-SKI 43 + Phenformin (first compound 1 µM) it was 0.457; with RU-SKI 43 + Phenformin (first compound 3.162 µM), 0.52; with RU-SKI 43 + Phenformin (first compound 10 µM), 0.511; with Irinotecan + Luminespib (first compound 0.6325 µM) it was 0.642. Further, the relative viability is 0.431 in the experiment with Irinotecan + Luminespib (first compound 2 µM); 0.334 in the experiment with Irinotecan + Luminespib (first compound 6.325 µM); 0.36 with Irinotecan + Luminespib (first compound 20 µM); 0.847 with Irinotecan + Crizotinib (first compound 0.6325 µM); 0.493 with Irinotecan + Crizotinib (first compound 2 µM); 0.332 with Irinotecan + Crizotinib (first compound 6.325 µM). Moreover, the relative viability amounted to 0.331 with Irinotecan + Crizotinib (first compound 20 µM); 0.449 with MK-8033 + Lapatinib (first compound 0.02 µM); 0.444 with MK-8033 + Lapatinib (first compound 0.2 µM); 0.477 with MK-8033 + Lapatinib (first compound 0.6325 µM); 0.482 with MK-8033 + Lapatinib (first compound 2 µM).
Regarding PC-14, the relative viability with RU-SKI 43 + Phenformin (first compound 0.1 µM) was 0.646; with RU-SKI 43 + Phenformin (first compound 0.3162 µM), 0.468; in the experiment with RU-SKI 43 + Phenformin (first compound 1 µM), 0.841; with RU-SKI 43 + Phenformin (first compound 3.162 µM), 0.457; with RU-SKI 43 + Phenformin (first compound 10 µM), 0.651; with Irinotecan + Luminespib (first compound 0.6325 µM), 0.11. Also, the relative viability with Irinotecan + Luminespib (first compound 2 µM) was 0.326; with Irinotecan + Luminespib (first compound 6.325 µM) it was 0.321; with Irinotecan + Luminespib (first compound 20 µM), 0.252; in the experiment with Irinotecan + Crizotinib (first compound 0.6325 µM), 0.873; with Irinotecan + Crizotinib (first compound 2 µM) it was 0.695; in the experiment with Irinotecan + Crizotinib (first compound 6.325 µM) it was 0.2. Also, the relative viability with Irinotecan + Crizotinib (first compound 20 µM) was 0.194; with MK-8033 + Lapatinib (first compound 0.02 µM), 0.338; in the experiment with MK-8033 + Lapatinib (first compound 0.06325 µM), 0.25; in the experiment with MK-8033 + Lapatinib (first compound 0.2 µM) it was 0.305; in the experiment with MK-8033 + Lapatinib (first compound 0.6325 µM), 0.31; with MK-8033 + Lapatinib (first compound 2 µM), 0.294.
Consider RERF-LC-KJ, for which the relative viability with RU-SKI 43 + Phenformin (first compound 0.1 µM) stood at 0.374; in the experiment with RU-SKI 43 + Phenformin (first compound 0.3162 µM), 0.418; in the experiment with RU-SKI 43 + Phenformin (first compound 1 µM), 0.347; in the experiment with RU-SKI 43 + Phenformin (first compound 3.162 µM), 0.417; with RU-SKI 43 + Phenformin (first compound 10 µM), 0.346; in the experiment with Irinotecan + Luminespib (first compound 0.6325 µM), 0.692. Further, the relative viability with Irinotecan + Luminespib (first compound 2 µM) is 0.567; with Irinotecan + Luminespib (first compound 6.325 µM), 0.461; with Irinotecan + Luminespib (first compound 20 µM) it was 0.224; with Irinotecan + Crizotinib (first compound 0.6325 µM), 0.785; in the experiment with Irinotecan + Crizotinib (first compound 2 µM), 0.533; with Irinotecan + Crizotinib (first compound 6.325 µM) it was 0.322. Further, the relative viability with Irinotecan + Crizotinib (first compound 20 µM) worked out at 0.342; with MK-8033 + Lapatinib (first compound 0.02 µM), 0.901; with MK-8033 + Lapatinib (first compound 0.06325 µM), 0.823; with MK-8033 + Lapatinib (first compound 0.2 µM) it was 0.854; with MK-8033 + Lapatinib (first compound 0.6325 µM), 0.798; in the experiment with MK-8033 + Lapatinib (first compound 2 µM), 0.815.
On to SK-LU-1, for which the relative viability with RU-SKI 43 + Phenformin (first compound 0.1 µM) was found to be 0.531; in the experiment with RU-SKI 43 + Phenformin (first compound 0.3162 µM) it was 0.689; with RU-SKI 43 + Phenformin (first compound 1 µM), 0.555; with RU-SKI 43 + Phenformin (first compound 3.162 µM) it was 0.715; with RU-SKI 43 + Phenformin (first compound 10 µM), 0.502; in the experiment with Irinotecan + Luminespib (first compound 0.6325 µM), 0.202. Moreover, the relative viability amounted to 0.241 in the experiment with Irinotecan + Luminespib (first compound 2 µM); 0.244 in the experiment with Irinotecan + Luminespib (first compound 6.325 µM); 0.236 with Irinotecan + Luminespib (first compound 20 µM); 0.404 with Irinotecan + Crizotinib (first compound 0.6325 µM); 0.572 with Irinotecan + Crizotinib (first compound 2 µM); 0.474 in the experiment with Irinotecan + Crizotinib (first compound 6.325 µM). Besides, the relative viability in the experiment with Irinotecan + Crizotinib (first compound 20 µM) came out at 0.463; with MK-8033 + Lapatinib (first compound 0.02 µM), 0.893; with MK-8033 + Lapatinib (first compound 0.06325 µM) it was 0.82; in the experiment with MK-8033 + Lapatinib (first compound 0.2 µM) it was 0.879; with MK-8033 + Lapatinib (first compound 0.6325 µM), 0.807; in the experiment with MK-8033 + Lapatinib (first compound 2 µM), 0.859.
